Test results: BigSolDB 2.1

CC(C)[C@H](NC(=O)OCC1c2ccccc2-c2ccccc21)C(=O)O
solubility (mole fraction)
Details | 283.15 K | 288.15 K | 293.15 K | 298.15 K | 303.15 K | 308.15 K | 313.15 K | 318.15 K | 323.15 K
in 2-butanone | 0.0403 | 0.0448 | 0.0509 | 0.057 | 0.0632 | 0.0699 | 0.0793 | 0.0902 | 0.102
in acetone | 0.0449 | 0.0504 | 0.0568 | 0.0627 | 0.0707 | 0.0792 | 0.0915 | 0.104 | 0.121
in acetonitrile | 0.00264 | 0.00327 | 0.00399 | 0.00477 | 0.00577 | 0.00703 | 0.00867 | 0.0105 | 0.0128
in dimethyl carbonate | 0.0073 | 0.00766 | 0.00901 | 0.0108 | 0.0131 | 0.016 | 0.0196 | 0.0235 | 0.0294
in ethanol | 0.0177 | 0.0243 | 0.0261 | 0.0312 | 0.0373 | 0.0462 | 0.057 | 0.0714 | 0.0877
in isobutanol | 0.00967 | 0.0112 | 0.0127 | 0.0152 | 0.0186 | 0.0236 | 0.0296 | 0.0366 | 0.0541
in isopentanol | 0.0103 | 0.0129 | 0.0159 | 0.0192 | 0.0231 | 0.0286 | 0.0351 | 0.0429 | 0.0552
in isopropanol | 0.0105 | 0.0133 | 0.0161 | 0.0204 | 0.0271 | 0.0352 | 0.0448 | 0.0533 | 0.071
in methanol | 0.0238 | 0.0259 | 0.0321 | 0.0396 | 0.0468 | 0.0571 | 0.0694 | 0.0846 | 0.0985
in n-butanol | 0.0155 | 0.019 | 0.0216 | 0.0244 | 0.0287 | 0.0351 | 0.0434 | 0.0536 | 0.0728
in n-butyl acetate | 0.0143 | 0.0162 | 0.0184 | 0.0209 | 0.0234 | 0.0273 | 0.0314 | 0.0362 | 0.0417
in n-pentanol | 0.016 | 0.0172 | 0.0199 | 0.0233 | 0.0281 | 0.0344 | 0.0417 | 0.0495 | 0.0582
in n-propanol | 0.0141 | 0.0169 | 0.0199 | 0.0227 | 0.0319 | 0.0398 | 0.0481 | 0.057 | 0.0742
in sec-butanol | 0.016 | 0.0174 | 0.0222 | 0.0275 | 0.0349 | 0.0435 | 0.0549 | 0.0653 | 0.0801
